Experiments:
[1] = system: tumor cell lines (K562, Raji, Jurkatt, CEM, MCF-7, MDA-MB-231, MD-MB-468, LNCaP, PC-3, HT-29, HCT-116, PANC-1, GL10-1); assay: Tumor cell proliferation, oxygen biosensor; type: cell-based; conditions: DMSO, ethanol and PBS solutions, at least 24 hour incubation, FIGS. 6-8
Text: Referring to FIGS. 6, 7, and 8 the effect of snake extract on tumor cell proliferation utilizing the DMSO, ethanol, and PBS solutions, is respectively analyzed. The methodology used to analyze tumor cell proliferation was oxygen biosensor. With this methodology culture plates are coated with an oxygen sensitive fluorescent compound embedded in a gas-permeable and hydrophobic matrix permanently attached to the bottom of a multi-well plate. The amount of fluorescence correlates directly to the rate of oxygen consumption in the well, providing a signal that can be directly correlated to cell growth.
In the experiments in FIGS. 1-8, the experiments were done with an effective amount of each analyzed target cancer cell lines dissolved within each snake extract solution measured as noted in each Figure for at least a 24 hour incubation period.
The following cell lines were utilized in the tests listed above: • Leukemia/Lymphoma: K562, Raji, Jurkatt, CEM; • Breast Carcinoma MCF-7, MDA-MB-231, MD-MB-468; • Prostate Carcinoma LNCaP, PC-3; • Colorectal Carcinoma: HT-29, HCT-116; • Pancreatic Carcinoma: PANC-1; • Gliobastaoma: GL10-1.

Artemia salina = assay: Brine shrimp lethality assay; type: in vivo; conditions: 24 h, nauplii
Experimental: The eggs of brine shrimp, Airtime salina (Leach), are used in monitoring bioactive compounds. The eggs are readily available in pet shops at low cost and remain viable for years in the dry state. The brine shrimp assay has advantages of being rapid (24 hrs), inexpensive, and simple. No aseptic techniques are required. It easily utilizes a large number of organisms for statistical validation and requires no special equipment and a relatively small amount of sample.
The assay was carried out with Artemia salina eggs. 50 mg of Artemia salina eggs in a beaker containing sea salt (6 g), yeast (0.9 mg) and distilled water (150 ml) were incubated at 27-28° C. for 24 hrs. The newly hatched nauplii were concentrated. From this volume, aliquots of 50 μl (approximately 18-20 nauplii) were pipette directly into a 24 well plates containing sea water (sw), −ve control (DMSO+sw), +ve control (emetine) or different concentrations of extracts (62.5-500 μg/ml). Assay was carried out in triplicate. The plates were sealed and incubated at 27-28° C. for 24 h. At the end of the 24-h incubation period, the content of each well was pipette into a watch glass individually. Survival was assessed by scoring the number of dead nauplii using a microscope. Once counts of dead nauplii had been taken, 0.5 ml of methanol was added to kill all remaining nauplii. The contents of each well were then recorded and result tabulated as (X/Y; where X=number dead and Y=number of dead and alive).

MDA-MB-435 tumor masses = conditions: cited from earlier work
breast cancer cells = conditions: cited from earlier work
B16F10 solid tumor = conditions: cited from earlier work
angiogenesis = conditions: elicited by basic fibroblast growth factor; cited from earlier work

CC[C@@]1(O)C(=O)OCc2c1cc1n(c2=O)Cc2cc3ccccc3nc2-1 [Camptothecin]
inhibiting cell proliferation [1]: more effective at inhibiting cell proliferation of different cell lines than the snake powder extract

CC[C@H]1CN2CCc3cc(OC)c(OC)cc3[C@@H]2C[C@@H]1C[C@H]1NCCc2cc(OC)c(OC)cc21 [Emetine]
% mortality (Artemia salina; concentration 62.5 (extracts 62.5-500 μg/ml)): 58.2%
% mortality (Artemia salina; concentration 125 (extracts 62.5-500 μg/ml)): 100%
% mortality (Artemia salina; concentration 250 (extracts 62.5-500 μg/ml)): 100%
% mortality (Artemia salina; concentration 500 (extracts 62.5-500 μg/ml)): 100%

Contortrostatin
angiogenesis induced by breast cancer (MDA-MB-435 tumor masses; immunohistochemical quantitation of vascular endothelial cells in tumor tissue): inhibiting angiogenesis
inhibited growth of tumor (MDA-MB-435 tumor masses; injected daily at 5 microgram per mouse): 74%
cytotoxicity to cancer cells (breast cancer cells): not cytotoxic
proliferation of the breast cancer cells in vitro (breast cancer cells): does not inhibit proliferation

Rhodostomin
survival (B16F10 solid tumor; C57BL/6 mice): prolonged survival
tumor growth (B16F10 solid tumor; subcutaneously inoculated B16F10 solid tumor): suppressed tumor growth
angiogenesis (angiogenesis): inhibit angiogenesis

Source: patent publication US20130171263A1, “Snake Powder Extract For Treatment Of Cancer” (priority 2006, published 2013)
